From patent US8943743B2, “Device for attracting and controlling the coffee berry borer, Hypothenemus hampei (Coleoptera: Scolytidae)” (Plato Industries Ltd, priority 2008, dated 2015)

Key:
[1] = tested on: coffee berry borer (CBB), Hypothenemus hampei; experiment: Second field study 2008 near Naranjo, Costa Rica: damaged berries 70 days after treatment; type: in vivo; conditions: Costa Rica 2008, 2500 m^2 blocks, 20 TMBs per hectare, 70 days after treatments were initiated
Description: A second study was conducted in 2008 near Naranjo, Costa Rica. In this study, blocks treated with either blue and red TMBs had fewer damaged berries 70 days after treatments were initiated than did the untreated block or the block treated with endosulfan. Each block was 2500 m^2 in size and was treated with 20 TMBs per hectare.

[2] = tested on: coffee berry borer (CBB), Hypothenemus hampei; experiment: Third field study 2008 near Alajuela, Costa Rica: damaged berries 70 days after treatment; type: in vivo; conditions: Costa Rica 2008, 2500 m^2 blocks, 20 TMBs per hectare, 70 days after treatments were initiated
Description: A third study was conducted in 2008 near Alajuela, Costa Rica. In this study, 2500 m^2 blocks treated with either blue and red TMBs at a rate of 20 TMBs per hectare had fewer damaged berries 70 days after treatments were initiated than did the untreated block, the block treated with endosulfan, or the block treated with red plastic traps.

O=S1OCC2C(CO1)C1(Cl)C(Cl)=C(Cl)C2(Cl)C1(Cl)Cl (centres unmarked) [endosulfan]
Mean % infested berries [1]: 1.15% | Mean % infested berries [2]: 5.9%
